Columns and labels:
[1] = test system: H3Rs; experiment: PET in anesthetized rhesus monkeys with arterial blood sampling; assay type: in vivo, rhesus monkey; conditions: for V T, Logan graphical analysis, Scan duration 60 min / V T, Logan graphical analysis, Scan duration 70 min / V T, Logan graphical analysis, Scan duration 80 min / V T, Logan graphical analysis, Scan duration 90 min / V T, One-tissue compartment model, Scan duration 90 min: Mean ± S.D., n = 3
Method: For a detailed pharmacokinetic PET study using [^11C]TASP0410457 with arterial blood sampling, three male rhesus monkeys weighing 5–7 kg were scanned with the SHR-7700 PET camera. The monkeys were initially anesthetized with an intramuscular injection of ketamine (10 mg/kg), intubated, and subsequently kept anesthetized with 1–2 % isoflurane. Electrocardiogram and blood oxygen saturation levels were monitored, and body temperature was maintained by a heating pad throughout the experiment. Arterial blood (1–2.5 mL) was collected from the saphenous artery at 10, 20, 30, 40, 50, 60, and 90 s and at 2, 3, 4, 5, 10, 15, 30, 60, and 90 min after the intravenous injection of [^11C]TASP0410457 (injected radioactivity, 159 ± 30 MBq; mass dose, 1.2 ± 0.3 μg; mean ± S.D., n = 3).
The arterial blood was centrifuged at 20,000×g for 3 min at 4 °C to separate the plasma. Radioactivity in total blood and plasma was determined using a 1480 WIZARD gamma counter (PerkinElmer), and was decay-corrected to the injection time. Arterial plasma collected at 1, 5, 15, 30, 60, and 90 min was used to analyze radioactive metabolites of [^11C]TASP0410457. Two hundred microliters of plasma was mixed with 200 μL of ice-cold acetonitrile, and the mixtures were centrifuged at 20,000×g for 3 min at 4 °C. Fifty to […] of the resultant supernatants were separated using HPLC (JASCO, Tokyo, Japan) on an Atlantis T3 column (4.6 × 50 mm, Waters, Milford, MA) with a mobile phase consisting of 10 mM of ammonium acetate/acetonitrile (68:32) at a flow rate of 1 mL/min. The fraction of unmetabolized [^11C]TASP0410457 was determined by measuring the areas of the HPLC peaks corresponding to [^11C]TASP0410457 and its radiometabolites.
Emission scan images were reconstructed using a 4.0-mm Colsher filter. ROIs were placed on the anterior cingulate cortex, striatum, thalamus, hippocampus, cerebellum, frontal cortex, temporal cortex, occipital cortex, and pons-medulla using PMOD software, with reference to an MRI template as described previously. Tissue TACs were generated as in the rat PET image analysis.
For PET study in anesthetized monkeys, metabolite-corrected plasma TACs were used as arterial input functions. The regional total volume of distribution (VT) was estimated by Logan’s graphical plot and one-tissue compartment model using PMOD software.

[2] = design: method as in K. Kawamura, personal communication, 2015; conditions: mice; 30 min after intravenous injection; pilot assays; ref K. Kawamura, personal communication, 2015; cited from earlier work
[3] = test system: H3Rs; experiment: In vitro autoradiography, monkey brain sections; assay type: binding, rhesus monkey; conditions: in the presence of 10 μM of unlabelled TASP0410457 or ciproxifan
Method: Twenty-micrometer-thick sagittal rat and monkey brain sections were incubated in an autoradiography buffer containing 5 nM [^11C]TASP0410457 as described in Additional file 1: Supplemental methods. The binding was also performed in the presence of 10 μM of unlabeled TASP0410457, thioperamide, or ciproxifan for the rat sections and 10 μM of TASP0410457 or ciproxifan for the monkey sections to assess the specific radioligand binding.
(25:75) at a flow rate of 1 mL/min. A representative chromatogram of [11C]TASP0390136 is shown in […]
Twenty-micrometer-thick sagittal rat brain sections were pre-incubated with autoradiography buffer (50 mM Tris containing 120 mM NaCl, 2 mM KCl, 1 mM MgCl2, and 1 mM CaCl2, pH7.4) for 30 min, then incubated in the autoradiography buffer containing 5 nM [11C]TASP0410457 at 25°C for 1 h. The sections were washed two times with ice-cold autoradiography buffer for 5 min, rinsed with ice-cold water for 10 s, and then quickly dried. The radioactivity retained on the sections was determined using a BAS imaging plate and the BAS5000 system (GE Healthcare, Piscataway, NJ). For a blocking study, brain slices were reacted with [11C]TASP0410457 in the presence of […] of TASP0410457, thioperamide, or ciproxifan.
Similarly, autoradiography using […] sagittal rhesus monkey brain sections was conducted. […]

[4] = Anterior cingulate cortex, monkey brain

SMILES: [11CH3]Oc1ccc(N2C(=O)CCc3cc(OC4CCN(C5CCC5)CC4)ccc32)cn1 [[^11C]TASP0410457]
- V T, Logan graphical analysis, Scan duration 60 min [1, 4]: 18.4 ± 2.7 mL/cm^3
- V T, Logan graphical analysis, Scan duration 70 min [1, 4]: 18.6 ± 2.8 mL/cm^3
- V T, Logan graphical analysis, Scan duration 80 min [1, 4]: 19.1 ± 3.2 mL/cm^3
- V T, Logan graphical analysis, Scan duration 90 min [1, 4]: 19.5 ± 3.4 mL/cm^3
- V T, One-tissue compartment model, Scan duration 90 min [1, 4]: 20.3 ± 3.3 mL/cm^3
- V T, Logan graphical analysis, Scan duration 60 min ([1]; Cerebellum, monkey brain): 12.1 ± 1.2 mL/cm^3
- V T, Logan graphical analysis, Scan duration 70 min ([1]; Cerebellum, monkey brain): 12.4 ± 1.3 mL/cm^3
- V T, Logan graphical analysis, Scan duration 80 min ([1]; Cerebellum, monkey brain): 12.7 ± 1.5 mL/cm^3
- V T, Logan graphical analysis, Scan duration 90 min ([1]; Cerebellum, monkey brain): 13.0 ± 1.7 mL/cm^3
- V T, One-tissue compartment model, Scan duration 90 min ([1]; Cerebellum, monkey brain): 12.8 ± 1.7 mL/cm^3
- V T, Logan graphical analysis, Scan duration 60 min ([1]; Frontal cortex, monkey brain): 12.3 ± 1.6 mL/cm^3
- V T, Logan graphical analysis, Scan duration 70 min ([1]; Frontal cortex, monkey brain): 12.5 ± 1.7 mL/cm^3
- V T, Logan graphical analysis, Scan duration 80 min ([1]; Frontal cortex, monkey brain): 12.8 ± 1.8 mL/cm^3
- V T, Logan graphical analysis, Scan duration 90 min ([1]; Frontal cortex, monkey brain): 13.0 ± 2.0 mL/cm^3
- V T, One-tissue compartment model, Scan duration 90 min ([1]; Frontal cortex, monkey brain): 13.4 ± 1.8 mL/cm^3
- V T, Logan graphical analysis, Scan duration 60 min ([1]; Hippocampus, monkey brain): 13.0 ± 1.0 mL/cm^3
- V T, Logan graphical analysis, Scan duration 70 min ([1]; Hippocampus, monkey brain): 13.2 ± 1.0 mL/cm^3
- V T, Logan graphical analysis, Scan duration 80 min ([1]; Hippocampus, monkey brain): 13.6 ± 1.2 mL/cm^3
- V T, Logan graphical analysis, Scan duration 90 min ([1]; Hippocampus, monkey brain): 13.9 ± 1.4 mL/cm^3
- V T, One-tissue compartment model, Scan duration 90 min ([1]; Hippocampus, monkey brain): 13.9 ± 1.3 mL/cm^3
- V T, Logan graphical analysis, Scan duration 60 min ([1]; Occipital cortex, monkey brain): 11.7 ± 1.6 mL/cm^3
- V T, Logan graphical analysis, Scan duration 70 min ([1]; Occipital cortex, monkey brain): 11.8 ± 1.6 mL/cm^3
- V T, Logan graphical analysis, Scan duration 80 min ([1]; Occipital cortex, monkey brain): 12.0 ± 1.8 mL/cm^3
- V T, Logan graphical analysis, Scan duration 90 min ([1]; Occipital cortex, monkey brain): 12.1 ± 1.9 mL/cm^3
- V T, One-tissue compartment model, Scan duration 90 min ([1]; Occipital cortex, monkey brain): 12.7 ± 2.0 mL/cm^3
- V T, Logan graphical analysis, Scan duration 60 min ([1]; Pons-medulla, monkey brain): 8.5 ± 0.6 mL/cm^3
- V T, Logan graphical analysis, Scan duration 70 min ([1]; Pons-medulla, monkey brain): 8.6 ± 0.7 mL/cm^3
- V T, Logan graphical analysis, Scan duration 80 min ([1]; Pons-medulla, monkey brain): 8.8 ± 0.7 mL/cm^3
- V T, Logan graphical analysis, Scan duration 90 min ([1]; Pons-medulla, monkey brain): 9.1 ± 0.9 mL/cm^3
- V T, One-tissue compartment model, Scan duration 90 min ([1]; Pons-medulla, monkey brain): 8.8 ± 0.9 mL/cm^3
- V T, Logan graphical analysis, Scan duration 60 min ([1]; Striatum, monkey brain): 21.2 ± 3.0 mL/cm^3
- V T, Logan graphical analysis, Scan duration 70 min ([1]; Striatum, monkey brain): 21.5 ± 3.0 mL/cm^3
- V T, Logan graphical analysis, Scan duration 80 min ([1]; Striatum, monkey brain): 21.9 ± 3.3 mL/cm^3
- V T, Logan graphical analysis, Scan duration 90 min ([1]; Striatum, monkey brain): 22.6 ± 3.8 mL/cm^3
- V T, One-tissue compartment model, Scan duration 90 min ([1]; Striatum, monkey brain): 23.2 ± 3.6 mL/cm^3
- V T, Logan graphical analysis, Scan duration 60 min ([1]; Temporal cortex, monkey brain): 12.3 ± 1.6 mL/cm^3
- V T, Logan graphical analysis, Scan duration 70 min ([1]; Temporal cortex, monkey brain): 12.4 ± 1.7 mL/cm^3
- V T, Logan graphical analysis, Scan duration 80 min ([1]; Temporal cortex, monkey brain): 12.5 ± 1.8 mL/cm^3
- V T, Logan graphical analysis, Scan duration 90 min ([1]; Temporal cortex, monkey brain): 12.9 ± 2.1 mL/cm^3
- V T, One-tissue compartment model, Scan duration 90 min ([1]; Temporal cortex, monkey brain): 13.3 ± 2.1 mL/cm^3
- V T, Logan graphical analysis, Scan duration 60 min ([1]; Thalamus, monkey brain): 15.1 ± 1.7 mL/cm^3
- V T, Logan graphical analysis, Scan duration 70 min ([1]; Thalamus, monkey brain): 15.4 ± 1.9 mL/cm^3
- V T, Logan graphical analysis, Scan duration 80 min ([1]; Thalamus, monkey brain): 15.6 ± 1.9 mL/cm^3
- V T, Logan graphical analysis, Scan duration 90 min ([1]; Thalamus, monkey brain): 16.0 ± 2.1 mL/cm^3
- V T, One-tissue compartment model, Scan duration 90 min ([1]; Thalamus, monkey brain): 16.1 ± 1.8 mL/cm^3
- time of peak radioligand retention in the striatum ([1]; anesthetized monkeys): around 30 min
- time of plasma radioactivity peak ([1]; anesthetized monkeys, arterial plasma): approximately 1 min
- peak SUV in the striatum ([1]; anesthetized monkeys, mean ± S.D.): 5.0 ± 0.8
- striatal VT ([1]; monkey): exceeded 20 mL/cm^3
- change of VT values when scan endpoint changed between 90 and 60 min ([1]; monkey brain, Logan's graphical analysis, relative to values for 90 min): ≤ 7%
- fraction of unmetabolized radioligand of total plasma radioactivity ([1]; monkey plasma at 90 min): 34%
- metabolite share of radioactivity in the brain [2]: approximately 50%
- binding in the monkey cerebellum and brainstem under blockade [3]: noticeably decreased
